The text below walks through data of patent US7326734B2, “Treatment of bladder and urinary tract cancers” (The Regents of the University of California, priority 2003, dated 2008).

One data set concerns T24 bladder cancer cells. Briefly: antiproliferative activity against T24 (Grade 3, non-metastatic) bladder cancer cells in vitro. The data set is classed as cell-based. Particulars: for Percentage of inhibition related to control (%) / inhibition at 25 µg/mL / inhibition at 50 µg/mL / inhibition at 100 µM: bladder cancer cells in vitro; for inhibition at 25 µg/mL / inhibition at 50 µg/mL / inhibition at 100 µM: read-out: Percentage of inhibition related to control (%). The procedure:
(§1) Compounds of the present invention were tested for antiproliferative activity against RT24 (Grade I) and T24 (Grade3, non-metastatic) bladder cancer cells in vitro, in accordance with well known standard technique as diagramed in FIG. 5.

Data set [1] deals with RT24 (Grade I) bladder cancer cells. Briefly: antiproliferative activity against RT24 (Grade I) bladder cancer cells in vitro. As to conditions: FIGS. 1-4. The data set is classed as cell-based. The procedure:
FIG. 5 is a schematic diagram of the in vitro test for antiproliferative activity referred to in Example 1 below.
as §1

Another data set concerns bladder cancer. Particulars: cited from earlier work.
The subject of data set [2] is advanced transitional cell carcinoma of the urothelium. As to conditions: Phase II, with prophylactic G-CSF, cited from earlier work.
Data set [3] relates to human bladder cancer cell lines. Particulars: cited from earlier work.

As for 11-Methysticin, the “Percentage of inhibition related to control (%)” value with T24 bladder cancer cells (25 μg/ml) was 52.1%.

In the case of `COc1cc(O)cc(O)c1C(=O)CC(O)c1ccccc1` (stereo not shown) [1-(2,4-Dihydorxy-6-methoxy-phenyl-3-hydorxy-3-phenyl-propan-1-one], the “Percentage of inhibition related to control (%)” value in the data set on T24 bladder cancer cells (25 μg/ml) was 42.3%.

`COc1ccc(/C=C/C(=O)c2c(OC)cc(O)cc2OC)cc1` [4′-hydroxy-4,2′,6′-trimethoxychalcone]: the inhibition (in general, the drop in the measured response relative to a control, in per cent) at 25 µg/mL in the data set with T24 bladder cancer cells (25 μg/ml) came to 73.7%.

Regarding `COc1cc(/C=C/c2ccc(OC)c(OC)c2)oc(=O)c1` [11-Methoxyangonin], the “Percentage of inhibition related to control (%)” value in the data set on T24 bladder cancer cells (25 μg/ml) is reported as 26.3%.

Turning to `COc1ccc2cc3[n+](cc2c1OC)CCc1cc2c(cc1-3)OCO2` [Berberine], the inhibition at 50 µg/mL with T24 bladder cancer cells (50 μg/ml) amounted to 17.9%.

With `COc1ccc(-c2coc3cc(O)cc(O)c3c2=O)cc1` [Biochanin A], the “Percentage of inhibition related to control (%)” value in the data set with T24 bladder cancer cells (25 μg/ml) was 48.7%.

For the molecule `CC(=O)OC[C@@]1(O)C[C@@]23CC[C@@H]4c5ccoc5CC[C@@]4(C)[C@@H]2CC[C@@H]1C3` [Cafestol Acetate], in the data set with T24 bladder cancer cells (50 μg/ml), the inhibition at 50 µg/mL is 57.6%.

As to `O=c1oc2cc(O)ccc2c2oc3cc(O)ccc3c12` [Coumestrol], the inhibition at 50 µg/mL with T24 bladder cancer cells (50 μg/ml) was determined as 30%.

`COc1cc(/C=C/C(=O)CC(=O)/C=C/c2ccc(O)c(OC)c2)ccc1O` [Curcumin]: in the data set with T24 bladder cancer cells (50 μg/ml), the inhibition at 50 µg/mL turned out to be 69.7%.

Turning to `O=c1c(-c2ccc(O)cc2)coc2cc(O)ccc12` [Daidzein], the inhibition at 50 µg/mL with T24 bladder cancer cells (50 μg/ml) turned out to be 39.3%.

In the case of `O=C(O[C@@H]1Cc2c(O)cc(O)cc2O[C@@H]1c1cc(O)c(O)c(O)c1)c1cc(O)c(O)c(O)c1` [EGCG], the “Percentage of inhibition related to control (%)” value with T24 bladder cancer cells (25 μg/ml) was 34%.

For `O=c1oc2c(O)c(O)cc3c(=O)oc4c(O)c(O)cc1c4c23` [Ellagic acid], in the data set on T24 bladder cancer cells, the inhibition at 100 µM was 66%.

Consider `COc1ccc(/C=C/C(=O)c2c(O)cc(OC)cc2OC)cc1` [Flavokawain A, 2′-hydroxy-4,4′,6′-trimethoxychalcone], for which the “inhibitory effects on proliferation” value is “significant inhibitory effects” with T24 bladder cancer cells (T24 (Grade 3, non-metastatic) cells in vitro, FIGS. 1-4) and “significant inhibitory effects” in data set [1].

Turning to `Nc1ccn([C@@H]2O[C@H](CO)[C@@H](O)C2(F)F)c(=O)n1` [Gemcitabine], in the data set on bladder cancer (clinical trials), the median survival entry is on record as “less than 12 months” and the response rate result is “less than 30%”. In addition, the toxicity result in the data set with bladder cancer (phase II trials) was “in general mild and reversible”.

Take `O=c1c(-c2ccc(O)cc2)coc2cc(O)cc(O)c12` [Genistein]: the inhibition at 25 µg/mL in the data set with T24 bladder cancer cells (25 μg/ml) worked out at 48.7%.

With `O=c1c(O)c(-c2ccc(O)cc2)oc2cc(O)cc(O)c12` [Kaempferol], the inhibition at 50 µg/mL in the data set with T24 bladder cancer cells (50 μg/ml) came to 60%.

For `C[C@@]12C=Cc3occc3[C@H]1CC[C@@]13C[C@@H](CC[C@H]12)[C@@](O)(CO)C3` [Kahweol], the “Percentage of inhibition related to control (%)” value in the data set on T24 bladder cancer cells (50 μg/ml) was found to be 61.2%.

As to `COC1=CC(=O)O[C@@H](/C=C/c2ccccc2)C1` [Kawain], in the data set on T24 bladder cancer cells (25 μg/ml), the inhibition at 25 µg/mL stood at 33.6%.

For the molecule `O=c1c(O)c(-c2ccc(O)cc2O)oc2cc(O)cc(O)c12` [Morin], the inhibition at 50 µg/mL in the data set with T24 bladder cancer cells (50 μg/ml) is 34%.

For `O=C1C[C@@H](c2ccc(O)cc2)Oc2cc(O)cc(O)c21` [Naringenin], in the data set on T24 bladder cancer cells (50 μg/ml), the inhibition at 50 µg/mL was found to be 20%.

`C[C@@H]1O[C@@H](O[C@H]2[C@H](Oc3cc(O)c4c(c3)O[C@H](c3ccc(O)cc3)CC4=O)O[C@H](CO)[C@@H](O)[C@@H]2O)[C@H](O)[C@H](O)[C@H]1O` [Naringin]: the inhibition at 50 µg/mL with T24 bladder cancer cells (50 μg/ml) was found to be 29%.

Regarding `Oc1cc(O)c2c(c1)O[C@H](c1ccc(O)c(O)c1)[C@H](O)[C@H]2c1c(O)cc(O)c2c1O[C@H](c1ccc(O)c(O)c1)[C@@H](O)C2` [Procyanidin B1], the “Percentage of inhibition related to control (%)” value in the data set with T24 bladder cancer cells (25 μg/ml) came out at 44.2%.

Consider `O=c1c(O)c(-c2ccc(O)c(O)c2)oc2cc(O)cc(O)c12` [Quercetin], for which, in the data set with T24 bladder cancer cells (50 μg/ml), the inhibition at 50 µg/mL was 53.3%.

Take `Oc1ccc(C=Cc2cc(O)cc(O)c2)cc1` [Resveratrol]: the inhibition at 50 µg/mL in the data set on T24 bladder cancer cells (50 μg/ml) worked out at 70.6%.

With `O=c1c2ccccc2nc2n1CCc1c-2[nH]c2ccccc12` [Rutaecurpine], the “Percentage of inhibition related to control (%)” value with T24 bladder cancer cells (50 μg/ml) was 76%.

Take `C[C@@H]1O[C@@H](OC[C@H]2O[C@@H](Oc3c(-c4ccc(O)c(O)c4)oc4cc(O)cc(O)c4c3=O)[C@H](O)[C@@H](O)[C@@H]2O)[C@H](O)[C@H](O)[C@H]1O` [Rutin]: the inhibition at 100 µM in the data set with T24 bladder cancer cells worked out at 47.7%.

For the molecule `COc1cc(C2Oc3cc([C@H]4Oc5cc(O)cc(O)c5C(=O)[C@@H]4O)ccc3OC2CO)ccc1O` (stereo partly shown) [Silibinin], the inhibition at 100 µM with T24 bladder cancer cells came to 40%.

`O=C1c2c(O)cc(O)cc2O[C@H](c2ccc(O)c(O)c2)[C@H]1O` [Taxifolin]: the inhibition at 50 µg/mL in the data set on T24 bladder cancer cells (50 μg/ml) is 36.7%.

With `CC(=O)O[C@H]1C(=O)[C@@]2(C)[C@H]([C@H](OC(=O)c3ccccc3)[C@]3(O)C[C@H](OC(=O)[C@H](O)[C@@H](NC(=O)c4ccccc4)c4ccccc4)C(C)=C1C3(C)C)[C@]1(OC(C)=O)CO[C@@H]1C[C@@H]2O` [paclitaxel], the “objective response (response rate)” value in data set [2] (previously untreated patients) was 42%. Besides, in data set [2], the toxicities entry is “granulocytopenia, anemia, mucositis, and neuropathy”. Also, the “activity against human bladder cancer cell lines” value in data set [3] was “significant activity”.
